Laboratory results from patent US20230053540A1, “TREATMENT OF LIVER INJURY” (Massachusetts Institute of Technology, priority 2019, published 2023).

Tested on: hepatocytes
Test: Seq-Well scRNA-Seq of hepatocytes after APAP overdose (signature scores, DEG vs untreated)
Assay type: in vivo, mouse
Conditions: A6 vs UT

For `CC(=O)Nc1ccc(O)cc1` [APAP, acetaminophen], the “Ddc avg_logFC” value was −0.3608, the “Ddc pct.1” value was 0.241 and the “Ddt avg_logFC” value was −0.5222. For the same molecule, the “Ddx3x avg_logFC” value was 0.6569, the “Ddx3y A6logFC” value was 0.3395 and the “Ddx5 avg_logFC” value was 0.5229. The “Ddx6 avg_logFC” value was 0.4443, the “Ddx6 pct.1” value was 0.527 and the “Ddx21 avg_logFC” value was 0.7314. The “Ddx27 A6logFC” value was 0.2522, the “Ddx27 avg_logFC” value was 0.2522 and the “Ddx27 pct.1” value was 0.286. The “Deb1 A6logFC” value was −0.267, the “Deb1 avg_logFC” value was −0.267 and the “Deb1 pct.1” value was 0.274. The “Dera A6logFC” value was −0.2674, the “Dera avg_logFC” value was −0.2674 and the “Dera pct.1” value was 0.32. For the same molecule, the “Derl2 A6logFC” value was −0.3317, the “Dgkd avg_logFC” value was 0.3708 and the “Dgkd pct.1” value was 0.282. The “Dhrs3 avg_logFC” value was −0.4676, the “Dhrs3 pct.1” value was 0.198 and the “Dhrs4 A6logFC” value was −0.3321. For the same molecule, the “Diap1 A6logFC” value was 0.3259, the “Diap1 avg_logFC” value was 0.3259 and the “Diap1 pct.1” value was 0.382. The “Dio1 avg_logFC” value was −0.5453, the “Dio1 pct.1” value was 0.253 and the “Dkc1 avg_logFC” value was 0.3258. For the same molecule, the “Dkc1 pct.1” value was 0.315, the “Dnaja2 A6logFC” value was 0.3723 and the “Dnajc5 A6logFC” value was 0.3265. For the same molecule, the “Dnajc19 A6logFC” value was −0.316, the “Dot1l avg_logFC” value was 0.397 and the “Dot1l pct.1” value was 0.282. The “Dsp A6logFC” value was 0.2655, the “Dsp avg_logFC” value was 0.2655 and the “Dsp pct.1” value was 0.32. The “Dst avg_logFC” value was 0.511, the “Dst pct.1” value was 0.43 and the “Dusp5 avg_logFC” value was 0.2964. For the same molecule, the “Dusp6 avg_logFC” value was 0.5916, the “Dusp16 avg_logFC” value was 0.4605 and the “Dusp16 pct.1” value was 0.372. The “Dync1h1 A6logFC” value was 0.3796, the “Eaf1 avg_logFC” value was 0.5218 and the “Eaf1 pct.1” value was 0.427. The “Ebpl avg_logFC” value was −0.4503, the “Ebpl pct.1” value was 0.196 and the “Eea1 A6logFC” value was 0.2612. The “Eea1 avg_logFC” value was 0.2612, the “Eea1 pct.1” value was 0.363 and the “Efhd2 avg_logFC” value was 0.5838. The “Egr1 avg_logFC” value was 0.5846, the “Egr1 pct.1” value was 0.589 and the “Eif1a avg_logFC” value was 0.7953. For the same molecule, the “Eif3a avg_logFC” value was 0.3147, the “Eif3a pct.1” value was 0.542 and the “Eif4a1 A6logFC” value was 0.2519. The “Eif4a1 avg_logFC” value was 0.2519, the “Eif4a1 pct.1” value was 0.418 and the “Eif4b A6logFC” value was 0.3682. For the same molecule, the “Eif4ebp1 A6logFC” value was 0.2617, the “Eif4ebp1 avg_logFC” value was 0.2617 and the “Eif4ebp1 pct.1” value was 0.387. For the same molecule, the “Eif4g1 avg_logFC” value was 0.3749, the “Eif4g1 pct.1” value was 0.723 and the “Eif4g2 avg_logFC” value was 0.5597. For the same molecule, the “Eifia A6logFC” value was 0.3147, the “Eifib A6logFC” value was 0.2503 and the “Eific A6logFC” value was 0.302. For the same molecule, the “Ell2 avg_logFC” value was 0.4172, the “Ell2 pct.1” value was 0.535 and the “Elovl3 avg_logFC” value was −0.5067. For the same molecule, the “Elovl3 pct.1” value was 0.568, the “Elovl5 A6logFC” value was 0.3352 and the “Elovl5 avg_logFC” value was 0.3352. For the same molecule, the “Elovl5 pct.1” value was 0.63, the “Epas1 avg_logFC” value was 0.7758 and the “Epb4.1 avg_logFC” value was 0.5628. The “Epb4.1 pct.1” value was 0.537, the “Erf3b avg_logFC” value was 0.2503 and the “Erf3b pct.1” value was 0.449. For the same molecule, the “Errfi1 avg_logFC” value was 0.3937, the “Errfi1 pct.1” value was 0.943 and the “Etnppl avg_logFC” value was 0.4182. For the same molecule, the “Etnppl pct.1” value was 0.706, the “Ets2 avg_logFC” value was 0.6956 and the “Fabp1 avg_logFC” value was −1.016. For the same molecule, the “Fabp2 avg_logFC” value was −0.6156, the “Fam25c A6logFC” value was −0.2977 and the “Fam107b avg_logFC” value was 0.4633. The “Fam107b pct.1” value was 0.449, the “Fam134b avg_logFC” value was 0.8936 and the “Fam195a A6logFC” value was −0.2649. For the same molecule, the “Fam214a A6logFC” value was −0.2658, the “Fbxo21 A6logFC” value was −0.2631 and the “Fcgr3 avg_logFC” value was 0.3082. For the same molecule, the “Fcgr3 pct.1” value was 0.107, the “Fdps A6logFC” value was −0.2663 and the “Fdx1 avg_logFC” value was −0.6234. For the same molecule, the “Fga avg_logFC” value was 0.6934, the “Fgb avg_logFC” value was 0.6469 and the “Fgg avg_logFC” value was 0.6153. For the same molecule, the “Fitm1 avg_logFC” value was −0.3242, the “Fitm1 pct.1” value was 0.012 and the “Fkbp5 avg_logFC” value was 0.5161. The “Fndc3b avg_logFC” value was 0.4096, the “Fndc3b pct.1” value was 0.315 and the “Fpgs avg_logFC” value was −0.3494. For the same molecule, the “Fpgs pct.1” value was 0.146, the “Ftsj3 A6logFC” value was 0.2552 and the “Ftsj3 avg_logFC” value was 0.2552. The “Ftsj3 pct.1” value was 0.346, the “Furin avg_logFC” value was 0.2536 and the “Furin pct.1” value was 0.477. For the same molecule, the “Fus A6logFC” value was 0.3393, the “Fxyd1 avg_logFC” value was −0.4799 and the “Fxyd1 pct.1” value was 0.432. For the same molecule, the “Fxyd5 avg_logFC” value was 0.2743, the “G6pc avg_logFC” value was −0.9601 and the “Gabarap avg_logFC” value was −0.4425. The “Gabarap pct.1” value was 0.518, the “Gadd45a A6logFC” value was 0.2829 and the “Gadd45a avg_logFC” value was 0.2829. The “Gadd45a pct.1” value was 0.251, the “Gadd45gip1 A6logFC” value was −0.3041 and the “Gamt avg_logFC” value was −0.5603. The “Gars A6logFC” value was 0.2576, the “Gars avg_logFC” value was 0.2576 and the “Gars pct.1” value was 0.334. The “Gcat A6logFC” value was −0.2587, the “Gcat avg_logFC” value was −0.2587 and the “Gcat pct.1” value was 0.315. The “Gcgr A6logFC” value was −0.2576, the “Gcgr avg_logFC” value was −0.2576 and the “Gcgr pct.1” value was 0.446. The “Gch1 avg_logFC” value was −0.2691, the “Gch1 pct.1” value was 0.461 and the “Gclc avg_logFC” value was 1.903. The “Gclm avg_logFC” value was 0.2699, the “Gclm pct.1” value was 0.695 and the “Gcnt2 avg_logFC” value was 0.5375. The “Gda A6logFC” value was 0.2663, the “Gda avg_logFC” value was 0.2663 and the “Gda pct.1” value was 0.243. The “Gfra1 avg_logFC” value was 0.3864, the “Gfra1 pct.1” value was 0.599 and the “Gjb2 avg_logFC” value was 0.6082. The “Gldc A6logFC” value was 0.2802, the “Gldc avg_logFC” value was 0.2802 and the “Gldc pct.1” value was 0.465. The “Glo1 avg_logFC” value was −0.4066, the “Glo1 pct.1” value was 0.513 and the “Glyat avg_logFC” value was −0.6477. The “Glyctk A6logFC” value was 0.2977, the “Gm4952 avg_logFC” value was −0.4987 and the “Gm4952 pct.1” value was 0.198. The “Gm5424 A6logFC” value was 0.2698, the “Gm5424 avg_logFC” value was 0.2698 and the “Gm5424 pct.1” value was 0.411. The “Gm13775 avg_logFC” value was −1.066, the “Gm15564 avg_logFC” value was 1.443 and the “Gm20594 A6logFC” value was 0.2957. For the same molecule, the “Gm23388 avg_logFC” value was 0.4162, the “Gm23388 pct.1” value was 0.222 and the “Gm23935 avg_logFC” value was 0.4242. The “Gm23935 pct.1” value was 0.878, the “Gm24187 avg_logFC” value was 0.4319 and the “Gm24187 pct.1” value was 0.2. The “Gm24601 avg_logFC” value was 0.4684, the “Gm26917 avg_logFC” value was 0.6012 and the “Gm26917 pct.1” value was 0.382. The “Gm26924 avg_logFC” value was 1.161, the “Gn13 avg_logFC” value was 0.576 and the “Gnai2 A6logFC” value was 0.2817. The “Gnai2 avg_logFC” value was 0.2817, the “Gnai2 pct.1” value was 0.391 and the “Gnas A6logFC” value was 0.2589. The “Gnas avg_logFC” value was 0.2589, the “Gnas pct.1” value was 0.79 and the “Gne avg_logFC” value was −0.4251. The “Gne pct.1” value was 0.263, the “Gnl2 avg_logFC” value was 0.3905 and the “Gnl2 pct.1” value was 0.384. For the same molecule, the “Gnmt avg_logFC” value was −0.3334, the “Gnmt pct.1” value was 0.962 and the “Golga4 avg_logFC” value was 0.3521. For the same molecule, the “Gpt2 avg_logFC” value was 0.5391, the “Gpx1 avg_logFC” value was −0.7686 and the “Grn avg_logFC” value was 0.5408. The “Gsk3b avg_logFC” value was 0.4065, the “Gsk3b pct.1” value was 0.384 and the “Gsr A6logFC” value was 0.4128. For the same molecule, the “Gsta1 avg_logFC” value was 0.4076, the “Gstk1 A6logFC” value was −0.2828 and the “Gstk1 avg_logFC” value was −0.2828. The “Gstk1 pct.1” value was 0.351, the “Gstm3 avg_logFC” value was −0.4111 and the “Gstm3 pct.1” value was 0.265. The “Gstz1 avg_logFC” value was −0.4641.
